Test results as given in PubChem BioAssay AID248 (DTP/NCI, 2004).
Inconclusive results and toxic doses are left out.

System: L1210 leukemia ip in BDF1 mice, survival T/C
Assay: NCI In Vivo Anticancer Drug Screen. Data for tumor model L1210 Leukemia (intraperitoneal) in B6D2F1 (BDF1) mice
Settings: endpoint: mean survival time, higher = longer survival
Summary of the method: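 Transplanted-tumor mice were given test agent; controls received vehicle only. Survival readings from the two groups were divided (treated over control).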

[1] = dose: 100.0 mg/kg/injection, schedule: Q01DX001 (ip), vehicle: Klucel (hydroxypropylcellulose) (HPC)
[2] = dose: 200.0 mg/kg/injection, schedule: Q01DX001 (ip), vehicle: Klucel (hydroxypropylcellulose) (HPC)
[3] = dose: 100.0 mg/kg/injection, schedule: Q01DX009 (ip), vehicle: saline
[4] = dose: 100.0 mg/kg/injection, schedule: Q04DX003 (ip), vehicle: saline
[5] = dose: 200.0 mg/kg/injection, schedule: Q04DX003 (ip), vehicle: saline
[6] = dose: 100.0 mg/kg/injection, schedule: Q01DX009 (ip), vehicle: Klucel (hydroxypropylcellulose) (HPC)
[7] = dose: 100.0 mg/kg/injection, schedule: Q04DX003 (ip), vehicle: saline with Tween-80
[8] = dose: 200.0 mg/kg/injection, schedule: Q01DX009 (ip), vehicle: Klucel (hydroxypropylcellulose) (HPC)
[9] = dose: 200.0 mg/kg/injection, schedule: Q04DX003 (ip), vehicle: saline with Tween-80
[10] = dose: 400.0 mg/kg/injection, schedule: Q04DX003 (ip), vehicle: saline with Tween-80
[11] = dose: 400.0 mg/kg/injection, schedule: Q01DX009 (ip), vehicle: Klucel (hydroxypropylcellulose) (HPC)
[12] = dose: 400.0 mg/kg/injection, schedule: Q04DX003 (ip), vehicle: saline

SMILES: CCS(=O)(=O)CS(=O)(=O)C(C)(C)C
- T/C [1]: 98 % of control
- T/C [2]: 91 % of control
- T/C (dose: 400.0 mg/kg/injection, schedule: Q01DX001 (ip), vehicle: Klucel (hydroxypropylcellulose) (HPC)): 94 % of control

SMILES: O=[N+]([O-])c1ccc(N/N=C2\Cc3ccccc3Cc3ccccc32)c([N+](=O)[O-])c1
- T/C (dose: 50.0 mg/kg/injection, schedule: Q01DX001 (ip), vehicle: Klucel (hydroxypropylcellulose) (HPC)): 90 % of control
- T/C [1]: 98 % of control
- T/C [2]: 90 % of control

SMILES: Clc1ccc2c(Cl)ncnc2c1
- T/C (dose: 13.0 mg/kg/injection, schedule: Q01DX Z (ip), vehicle: methylcellulose (MC)): 100 % of control
- T/C (dose: 20.0 mg/kg/injection, schedule: Q01DX Z (ip), vehicle: methylcellulose (MC)): 100 % of control
- T/C (dose: 30.0 mg/kg/injection, schedule: Q01DX Z (ip), vehicle: methylcellulose (MC)): 104 % of control
- T/C (dose: 45.0 mg/kg/injection, schedule: Q01DX Z (ip), vehicle: methylcellulose (MC)): 105 % of control
- T/C (dose: 50.0 mg/kg/injection, schedule: Q01DX009 (ip), vehicle: saline): 96 % of control
- T/C (dose: 50.0 mg/kg/injection, schedule: Q04DX003 (ip), vehicle: saline): 97 % of control
- T/C (dose: 100.0 mg/kg/injection, schedule: Q01DX001 (ip), vehicle: saline): 99 % of control
- T/C [3]: 100 % of control
- T/C [4]: 97 % of control
- T/C (dose: 200.0 mg/kg/injection, schedule: Q01DX001 (ip), vehicle: saline): 91 % of control
- T/C [5]: 94 % of control

SMILES: O=C(Nc1ccc(C2=NCCN2)cc1)c1cccc(C(=O)Nc2ccc(C3=NCCN3)cc2)c1[N+](=O)[O-]
- T/C (dose: 1.88 mg/kg/injection, schedule: Q01DX Z (ip), vehicle: saline): 100 % of control
- T/C (dose: 3.75 mg/kg/injection, schedule: Q01DX Z (ip), vehicle: saline): 100 % of control
- T/C (dose: 7.5 mg/kg/injection, schedule: Q01DX Z (ip), vehicle: saline): 100 % of control
- T/C (dose: 15.0 mg/kg/injection, schedule: Q01DX Z (ip), vehicle: saline): 105 % of control
- T/C (dose: 30.0 mg/kg/injection, schedule: Q01DX Z (ip), vehicle: carboxymethylcellulose (CMC)): 198 % of control
- T/C (dose: 30.0 mg/kg/injection, schedule: Q01DX Z (oral), vehicle: saline): 103 % of control
- T/C (dose: 60.0 mg/kg/injection, schedule: Q01DX Z (ip), vehicle: carboxymethylcellulose (CMC)): 117 % of control
- T/C (dose: 60.0 mg/kg/injection, schedule: Q01DX Z (oral), vehicle: saline): 105 % of control
- T/C (dose: 120.0 mg/kg/injection, schedule: Q01DX Z (oral), vehicle: saline): 107 % of control
- T/C (dose: 240.0 mg/kg/injection, schedule: Q01DX Z (oral), vehicle: saline): 102 % of control

SMILES: CC(O)Cc1c[nH]c(=O)[nH]c1=O (stereo unspecified)
- T/C (dose: 100.0 mg/kg/injection, schedule: Q01DX009 (ip), vehicle: water): 98 % of control
- T/C (dose: 100.0 mg/kg/injection, schedule: Q04DX003 (ip), vehicle: water): 94 % of control
- T/C (dose: 200.0 mg/kg/injection, schedule: Q01DX009 (ip), vehicle: water): 107 % of control
- T/C (dose: 200.0 mg/kg/injection, schedule: Q04DX003 (ip), vehicle: water): 98 % of control
- T/C (dose: 400.0 mg/kg/injection, schedule: Q01DX009 (ip), vehicle: water): 96 % of control
- T/C (dose: 400.0 mg/kg/injection, schedule: Q04DX003 (ip), vehicle: water): 93 % of control

SMILES: CC1CCC(C(C)C)C(N(C)Cc2cc(Br)cc(Br)c2O)C1 (stereo unspecified)
- T/C (dose: 50.0 mg/kg/injection, schedule: Q01DX009 (ip), vehicle: Klucel (hydroxypropylcellulose) (HPC)): 102 % of control
- T/C [6]: 107 % of control
- T/C [7]: 104 % of control
- T/C [8]: 105 % of control
- T/C [9]: 104 % of control
- T/C [10]: 98 % of control

SMILES: COc1cc([N+](=O)[O-])ccc1NC(=O)N(Cc1ccccc1)c1ccccc1
- T/C [6]: 98 % of control
- T/C [8]: 93 % of control
- T/C [11]: 91 % of control

SMILES: CC(C)(Cl)CCC1=C(Cl)C(=O)c2ccccc2C1=O
- T/C (dose: 5.0 mg/kg/injection, schedule: Q01DX001 (ip), vehicle: water): 98 % of control
- T/C (dose: 10.0 mg/kg/injection, schedule: Q01DX001 (ip), vehicle: water): 98 % of control

SMILES: Nc1cc2ccncc2c2sc3ccccc3c12
- T/C [3]: 86 % of control
- T/C [4]: 90 % of control
- T/C (dose: 200.0 mg/kg/injection, schedule: Q01DX009 (ip), vehicle: saline): 91 % of control
- T/C [5]: 90 % of control
- T/C (dose: 400.0 mg/kg/injection, schedule: Q01DX009 (ip), vehicle: saline): 93 % of control
- T/C [12]: 90 % of control

SMILES: O=C1NC(=O)/C(=C\c2ccc3c(c2)OCO3)S1
- T/C (dose: 2.5 mg/kg/injection, schedule: Q01DX009 (ip), vehicle: saline with Tween-80): 96 % of control
- T/C (dose: 5.0 mg/kg/injection, schedule: Q01DX009 (ip), vehicle: saline with Tween-80): 91 % of control
- T/C (dose: 10.0 mg/kg/injection, schedule: Q01DX009 (ip), vehicle: saline with Tween-80): 89 % of control

SMILES: O=c1oc2ccccc2c(=S)n1-c1ccccc1
- T/C [4]: 105 % of control
- T/C [5]: 94 % of control
- T/C [12]: 91 % of control

SMILES: c1ccc2sc(SCCSc3nc4ccccc4s3)nc2c1
- T/C (dose: 6.25 mg/kg/injection, schedule: Q01DX009 (ip), vehicle: saline with Tween-80): 93 % of control
- T/C (dose: 6.25 mg/kg/injection, schedule: Q04DX002 (ip), vehicle: saline with Tween-80): 100 % of control
- T/C (dose: 12.5 mg/kg/injection, schedule: Q01DX009 (ip), vehicle: saline with Tween-80): 97 % of control
- T/C (dose: 12.5 mg/kg/injection, schedule: Q04DX002 (ip), vehicle: saline with Tween-80): 89 % of control
- T/C (dose: 25.0 mg/kg/injection, schedule: Q01DX009 (ip), vehicle: saline with Tween-80): 95 % of control
- T/C (dose: 25.0 mg/kg/injection, schedule: Q04DX002 (ip), vehicle: saline with Tween-80): 89 % of control

SMILES: O=C(c1ccccc1)C1CCCCCC1
- T/C [6]: 108 % of control
- T/C (dose: 100.0 mg/kg/injection, schedule: Q04DX003 (ip), vehicle: Klucel (hydroxypropylcellulose) (HPC)): 94 % of control
- T/C [8]: 102 % of control
- T/C (dose: 200.0 mg/kg/injection, schedule: Q04DX003 (ip), vehicle: Klucel (hydroxypropylcellulose) (HPC)): 98 % of control
- T/C [11]: 104 % of control
- T/C (dose: 400.0 mg/kg/injection, schedule: Q04DX003 (ip), vehicle: Klucel (hydroxypropylcellulose) (HPC)): 98 % of control

SMILES: CN(C)/N=N/c1nc(CCCc2ccccc2)[nH]c1C(N)=O
- T/C [7]: 98 % of control
- T/C [9]: 103 % of control
- T/C [10]: 110 % of control
